One may read the AC50 as the concentration giving half of the maximal activity seen. Lower therefore signals activity at low concentration.

This note sets out measurements from US9388164B2, “Methods of using pyruvate kinase activators” (AGIOS PHARMACEUTICALS, INC, priority 2011, dated 2016).

SMILES strings stand for the structures.

Common to all, as to assay type: biochemical
One experiment deals with PKR T384W (Homo sapiens, UniProt P30613). Kind of experiment: PKR Mutant Assay, AC50 (T384W). How it is done:
(§1) • PKR or PKR mutant enzyme solution was diluted in assay buffer. • 2 μL of test compound was added into wells first, and then 180 μL reaction mix was added. • Reactions mixture with test compound was assembled except for ADP, and plates were stored for 60 minutes at room temperature. • 20 uL ADP was added to start reaction at room temperature and reaction progress was measured as changes in absorbance at 340 nm wavelength at room temperature.
(§2) Test Compound Preparation: • Test compound stock was made at 100× concentration in 100% DMSO (10 mM) • 1 to 3 dilutions were made for 11 points (i.e. 50 μl of first concentration added to 100 μl 100% DMSO to yield 3.33 mM, 50 μl of this added to 100 μl DMSO to yield 1.11 mM, and so forth) • 1 to 100 dilution into assay (2 μl in 200 μl) yielded starting concentration of 100 μM, decreasing 3 fold for 11 points.

Another experiment has as its target PKR R479H (Homo sapiens, UniProt P30613, R479H). Kind of experiment: PKR Mutant Assay, AC50 (R479H). How it is done: as §1, §2
The target of the next experiment is PKR G364D (Homo sapiens, UniProt P30613, G364D). Kind of experiment: PKR Mutant Assay, AC50 (G364D). The method, then: as §1, §2
PKR G364D, sequence (P30613 whole entry G364D): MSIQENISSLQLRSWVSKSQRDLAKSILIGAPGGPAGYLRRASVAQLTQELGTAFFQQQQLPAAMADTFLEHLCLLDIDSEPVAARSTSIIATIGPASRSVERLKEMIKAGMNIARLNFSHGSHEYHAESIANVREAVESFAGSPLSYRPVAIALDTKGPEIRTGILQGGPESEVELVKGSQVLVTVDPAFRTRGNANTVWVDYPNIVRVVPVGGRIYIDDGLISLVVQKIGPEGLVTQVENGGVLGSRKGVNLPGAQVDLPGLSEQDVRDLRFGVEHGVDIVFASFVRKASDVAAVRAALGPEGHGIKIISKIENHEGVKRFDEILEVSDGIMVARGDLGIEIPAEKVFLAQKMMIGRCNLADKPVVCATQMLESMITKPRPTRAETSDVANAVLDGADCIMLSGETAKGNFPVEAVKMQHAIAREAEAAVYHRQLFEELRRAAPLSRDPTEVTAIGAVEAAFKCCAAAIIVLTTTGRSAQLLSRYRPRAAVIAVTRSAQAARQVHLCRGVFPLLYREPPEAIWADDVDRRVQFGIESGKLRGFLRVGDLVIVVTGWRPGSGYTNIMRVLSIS
For another experiment, the target named is PKR R532W (Homo sapiens, UniProt P30613, R532W). Briefly: PKR Mutant Assay, AC50 (R532W). How it is done:
as §1, §2

A further experiment concerns the target PKR R510Q (Homo sapiens, UniProt P30613, R510Q). Briefly: PKR Mutant Assay, AC50 (R510Q). How it is done: as §1, §2

PKR T384W, sequence (P30613 whole entry T384M): as the sequence (P30613 whole entry G364D) above, with D364G, T384M counted along it
PKR R532W, sequence (P30613 whole entry R532W): as the sequence (P30613 whole entry G364D) above, with D364G, R532W counted along it
PKR R510Q, sequence (P30613 whole entry R510Q): as the sequence (P30613 whole entry G364D) above, with D364G, R510Q counted along it
PKR R479H, sequence (P30613 whole entry R479H): as the sequence (P30613 whole entry G364D) above, with D364G, R479H counted along it

`O=C(c1ccc(NS(=O)(=O)c2cccc3cccnc23)cc1)N1CC(O)(Cc2ccccc2)C1` [drawing 71]: the concentration at half-maximal activity (AC50) on PKR T384W is below 100 nM; at PKR R479H it was below 100 nM; at PKR G364D it was 101 to 500 nM; on PKR R532W it was below 100 nM; on PKR R510Q, 101 to 500 nM.

For `O=C(c1ccc(NS(=O)(=O)c2cccc3cccnc23)cc1)N1CC(O)(c2ccccc2)C1` [drawing 106], the concentration at half-maximal activity (AC50) at PKR T384W is 101 to 500 nM; at PKR R479H, above 500 nM; on PKR G364D, above 500 nM; at PKR R532W, 101 to 500 nM; on PKR R510Q it was above 500 nM.

For the molecule `Cc1cc(C(=O)N2CC(NC(=O)c3ccccn3)C2)ccc1NS(=O)(=O)c1cccc2cccnc12` [drawing 73], the AC50 was 101 to 500 nM on PKR T384W, 101 to 500 nM at PKR R532W and above 500 nM on PKR R510Q.

`Cc1cc(C(=O)N2CC(Oc3ccccc3)C2)ccc1NS(=O)(=O)c1cccc2cccnc12` [drawing 76]: the AC50 on PKR T384W was below 100 nM; on PKR R532W, below 100 nM; at PKR R510Q, 101 to 500 nM.
